Reference: PMC12073402, “A Selective MAP3K1 Inhibitor Facilitates Discovery of NPM1 as a Member of the Network” (Molecules, 2025)

Experiments:
Experiment in all cases: KiNativ kinome profiling in PANC-1 lysate
Type in all cases: binding
MAP4K3 = target: T1, MAP4K3 (Homo sapiens, UniProt Q8IVH8)
T1 construct: endogenous in cells; host or cells: PANC-1 cell lysate
In short: (§1)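 PANC-1 lysates were incubated with 5 μM inhibitor or DMSO, then labeled with a desthiobiotin-ATP acyl-phosphate probe that biotinylates conserved kinase lysines. Tryptic peptides were streptavidin-enriched and quantified by LC-MS/MS, reported as % change in MS signal from duplicate treated and duplicate control samples.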

Wnk1, Wnk2, Wnk3 = conditions: 5 µM; Lys2; DLKCDNIFITGPTGSVK
In short: as §1

FRK = target: T2, FRK (Homo sapiens, UniProt P42685); conditions: ATP Loop
T2 construct: endogenous in cells; host or cells: PANC-1 lysate
In short: as §1

PLK2 = target: T3, PLK2 (Homo sapiens, UniProt Q9NYY3); conditions: Lys2
T3 construct: endogenous in cells; host or cells: PANC-1 cell lysate
In short: as §1

CaMK2d = target: T4, CaMK2d (Homo sapiens, UniProt Q13557); conditions: Lys1
T4 construct: endogenous in cells; host or cells: PANC-1 cell lysate
In short: as §1

NEK7 = target: T5, NEK7 (Homo sapiens, UniProt Q8TDX7); conditions: Lys1
T5 construct: endogenous in cells; host or cells: PANC-1 cell lysate
In short: as §1

CDK7 = target: T6, CDK7 (Homo sapiens, UniProt P50613)
T6 construct: endogenous in cells; host or cells: PANC-1 cell lysate
In short: as §1

PDK1 = target: T7, PDK1 (Homo sapiens, UniProt O15530); conditions: Lys1
T7 construct: endogenous in cells; host or cells: PANC-1 cell lysate
In short: as §1

AurA = target: T8, AurA (Homo sapiens, UniProt O14965)
T8 construct: endogenous in cells; host or cells: PANC-1 cell lysate
In short: as §1

MRCKb = target: T9, MRCKb (Homo sapiens, UniProt Q9Y5S2); conditions: Lys2
T9 construct: endogenous in cells; host or cells: PANC-1
In short: as §1

CDK10 = target: T10, CDK10 (Homo sapiens, UniProt Q15131); conditions: Lys2
T10 construct: endogenous in cells; host or cells: PANC-1 cell lysate
In short: as §1

HRI = target: T11, HRI (Homo sapiens, UniProt Q9BQI3); conditions: ATP Loop
T11 construct: we opted to conduct a kinome screen (KiNativ) in PANC-1 cell lysates; endogenous in cells; host or cells: PANC-1 cell lysate
In short: as §1

TAO1, TAO3 = conditions: 5 µM; Lys2; DIKAGNILLTEPGQVK
In short: as §1

MAP3K3 = target: T12, MAP3K3 (Homo sapiens, UniProt Q99759); conditions: Lys1
T12 construct: endogenous in cells; host or cells: PANC-1 cell lysate
In short: as §1

EGFR, EGFR-L858R = target: T13, EGFR, EGFR-L858R (Homo sapiens, UniProt P00533)
T13 construct: endogenous in cells; host or cells: PANC-1 lysate
In short: as §1

[1] = test system: MSK1 domain1, MSK2 domain1; conditions: 5 µM; ATP Loop; VLGTGAYGKVFLVR
In short: as §1

AurA, AurB, AurC = conditions: 5 µM; ATP Loop; GKFGNVYLAR
In short: as §1

CSK = target: T14, CSK (Homo sapiens, UniProt P41240)
T14 construct: endogenous in cells; host or cells: PANC-1 cell lysate
In short: as §1

SRPK2 = target: T15, SRPK2 (Homo sapiens, UniProt P78362); conditions: Lys2
T15 construct: endogenous in cells; host or cells: PANC-1 cell lysate
In short: as §1

SRPK1 = target: T16, SRPK1 (Homo sapiens, UniProt Q96SB4); conditions: Lys2
T16 construct: endogenous in cells; host or cells: PANC-1 cell lysate
In short: as §1

PLK1 = target: T17, PLK1 (Homo sapiens, UniProt P53350)
T17 construct: endogenous in cells; host or cells: PANC-1 cell lysate
In short: as §1

JAK1 domain1 = target: T18, JAK1 domain1 (Homo sapiens, UniProt P23458); conditions: ATP Loop
T18 construct: we opted to conduct a kinome screen (KiNativ) in PANC-1 cell lysates; endogenous in cells; host or cells: PANC-1 cell lysate
In short: as §1

Erk2 = target: T19, Erk2 (Homo sapiens, UniProt P28482); conditions: Lys2
T19 construct: endogenous in cells; host or cells: PANC-1 lysate
In short: as §1

Erk1 = target: T20, Erk1 (Homo sapiens, UniProt P27361); conditions: Lys2
T20 construct: endogenous in cells; host or cells: PANC-1 lysate
In short: as §1

T6 sequence (P50613 whole entry): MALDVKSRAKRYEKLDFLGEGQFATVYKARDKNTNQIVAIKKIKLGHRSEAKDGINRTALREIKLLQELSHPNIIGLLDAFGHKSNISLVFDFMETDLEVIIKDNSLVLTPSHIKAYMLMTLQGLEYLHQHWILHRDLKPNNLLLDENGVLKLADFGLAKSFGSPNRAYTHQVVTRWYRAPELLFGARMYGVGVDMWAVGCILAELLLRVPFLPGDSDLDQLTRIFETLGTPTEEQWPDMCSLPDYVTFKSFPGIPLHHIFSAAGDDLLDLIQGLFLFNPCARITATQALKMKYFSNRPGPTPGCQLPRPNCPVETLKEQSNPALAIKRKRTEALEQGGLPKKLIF
T1 sequence (Q8IVH8 whole entry): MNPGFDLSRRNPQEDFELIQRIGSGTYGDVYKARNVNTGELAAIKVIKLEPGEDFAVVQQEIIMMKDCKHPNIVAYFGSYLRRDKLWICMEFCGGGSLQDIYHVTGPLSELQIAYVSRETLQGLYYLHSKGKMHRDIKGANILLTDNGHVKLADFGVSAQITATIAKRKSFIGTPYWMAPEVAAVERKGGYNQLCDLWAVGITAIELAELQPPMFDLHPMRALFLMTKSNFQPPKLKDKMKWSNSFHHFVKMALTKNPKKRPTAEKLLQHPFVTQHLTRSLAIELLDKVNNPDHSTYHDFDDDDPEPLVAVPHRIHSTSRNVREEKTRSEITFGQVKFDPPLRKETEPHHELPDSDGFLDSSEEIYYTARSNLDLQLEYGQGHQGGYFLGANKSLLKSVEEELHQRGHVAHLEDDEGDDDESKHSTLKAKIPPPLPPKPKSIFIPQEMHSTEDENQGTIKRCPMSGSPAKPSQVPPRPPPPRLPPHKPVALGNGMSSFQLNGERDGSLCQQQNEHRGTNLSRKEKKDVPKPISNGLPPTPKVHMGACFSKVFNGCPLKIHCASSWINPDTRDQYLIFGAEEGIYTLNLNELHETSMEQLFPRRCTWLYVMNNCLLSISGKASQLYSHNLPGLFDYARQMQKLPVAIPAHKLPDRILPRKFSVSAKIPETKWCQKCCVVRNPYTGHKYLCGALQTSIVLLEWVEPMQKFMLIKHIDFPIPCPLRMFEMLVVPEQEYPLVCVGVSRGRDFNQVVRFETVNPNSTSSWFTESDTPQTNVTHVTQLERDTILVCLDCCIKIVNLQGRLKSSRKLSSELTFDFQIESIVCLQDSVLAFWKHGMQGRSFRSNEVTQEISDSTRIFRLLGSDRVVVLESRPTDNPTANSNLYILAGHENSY
T17 sequence (P53350 whole entry): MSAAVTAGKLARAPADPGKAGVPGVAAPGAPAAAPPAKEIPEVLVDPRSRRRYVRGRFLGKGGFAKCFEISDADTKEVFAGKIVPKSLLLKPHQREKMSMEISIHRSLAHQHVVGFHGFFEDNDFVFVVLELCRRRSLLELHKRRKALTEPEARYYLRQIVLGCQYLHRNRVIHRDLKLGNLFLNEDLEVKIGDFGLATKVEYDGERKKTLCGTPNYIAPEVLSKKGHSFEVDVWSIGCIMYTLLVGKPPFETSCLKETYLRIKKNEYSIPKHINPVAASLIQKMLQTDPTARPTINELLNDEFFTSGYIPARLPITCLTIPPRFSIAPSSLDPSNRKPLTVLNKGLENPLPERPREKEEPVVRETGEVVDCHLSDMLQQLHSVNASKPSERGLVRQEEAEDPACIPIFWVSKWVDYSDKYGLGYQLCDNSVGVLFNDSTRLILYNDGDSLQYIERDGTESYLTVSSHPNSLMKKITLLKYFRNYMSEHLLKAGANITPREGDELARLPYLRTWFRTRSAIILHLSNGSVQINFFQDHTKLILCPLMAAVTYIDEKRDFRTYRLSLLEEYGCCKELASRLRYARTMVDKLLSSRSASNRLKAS
T14 sequence (P41240 whole entry): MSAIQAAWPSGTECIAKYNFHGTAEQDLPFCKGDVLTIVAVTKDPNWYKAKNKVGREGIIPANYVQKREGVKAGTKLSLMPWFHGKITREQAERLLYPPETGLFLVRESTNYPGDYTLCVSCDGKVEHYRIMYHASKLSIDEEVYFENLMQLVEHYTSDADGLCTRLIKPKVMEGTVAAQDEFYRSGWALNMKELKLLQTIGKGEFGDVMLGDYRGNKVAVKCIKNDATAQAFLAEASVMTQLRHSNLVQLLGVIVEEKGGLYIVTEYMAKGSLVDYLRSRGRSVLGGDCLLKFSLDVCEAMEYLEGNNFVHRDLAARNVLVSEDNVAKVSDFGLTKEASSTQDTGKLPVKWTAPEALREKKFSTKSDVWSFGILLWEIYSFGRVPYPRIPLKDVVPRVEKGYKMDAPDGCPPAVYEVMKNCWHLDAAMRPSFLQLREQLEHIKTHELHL
T13 sequence (P00533 25-1210 L858R): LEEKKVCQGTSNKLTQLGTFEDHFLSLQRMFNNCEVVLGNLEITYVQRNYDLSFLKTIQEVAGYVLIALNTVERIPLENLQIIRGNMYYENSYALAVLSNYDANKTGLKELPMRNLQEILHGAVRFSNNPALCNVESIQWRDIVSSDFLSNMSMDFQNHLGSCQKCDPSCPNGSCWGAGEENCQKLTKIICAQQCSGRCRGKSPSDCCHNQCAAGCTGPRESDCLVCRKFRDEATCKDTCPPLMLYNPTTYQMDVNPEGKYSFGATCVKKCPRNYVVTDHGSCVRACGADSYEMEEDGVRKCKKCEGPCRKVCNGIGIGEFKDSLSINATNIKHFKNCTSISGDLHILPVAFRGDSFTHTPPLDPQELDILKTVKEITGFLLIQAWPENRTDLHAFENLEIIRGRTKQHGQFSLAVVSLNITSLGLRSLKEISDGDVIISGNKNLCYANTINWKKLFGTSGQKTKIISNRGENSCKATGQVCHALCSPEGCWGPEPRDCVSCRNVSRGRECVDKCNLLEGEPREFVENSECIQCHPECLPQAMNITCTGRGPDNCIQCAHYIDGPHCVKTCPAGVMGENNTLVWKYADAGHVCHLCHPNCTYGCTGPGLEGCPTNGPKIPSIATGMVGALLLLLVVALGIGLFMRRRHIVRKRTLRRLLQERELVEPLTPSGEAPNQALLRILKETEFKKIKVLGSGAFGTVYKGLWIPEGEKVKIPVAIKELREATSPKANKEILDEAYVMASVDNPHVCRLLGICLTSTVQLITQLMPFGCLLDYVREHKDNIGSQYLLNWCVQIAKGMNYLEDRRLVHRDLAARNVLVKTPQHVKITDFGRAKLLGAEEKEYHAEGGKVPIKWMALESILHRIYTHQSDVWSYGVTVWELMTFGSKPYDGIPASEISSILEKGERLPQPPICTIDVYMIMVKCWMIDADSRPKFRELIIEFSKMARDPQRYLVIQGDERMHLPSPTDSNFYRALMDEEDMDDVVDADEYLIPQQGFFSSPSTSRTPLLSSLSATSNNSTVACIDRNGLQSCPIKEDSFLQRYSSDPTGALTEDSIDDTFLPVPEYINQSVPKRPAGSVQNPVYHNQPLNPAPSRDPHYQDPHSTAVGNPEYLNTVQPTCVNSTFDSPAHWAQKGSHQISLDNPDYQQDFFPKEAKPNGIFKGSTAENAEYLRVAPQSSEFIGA
T8 sequence (O14965 whole entry): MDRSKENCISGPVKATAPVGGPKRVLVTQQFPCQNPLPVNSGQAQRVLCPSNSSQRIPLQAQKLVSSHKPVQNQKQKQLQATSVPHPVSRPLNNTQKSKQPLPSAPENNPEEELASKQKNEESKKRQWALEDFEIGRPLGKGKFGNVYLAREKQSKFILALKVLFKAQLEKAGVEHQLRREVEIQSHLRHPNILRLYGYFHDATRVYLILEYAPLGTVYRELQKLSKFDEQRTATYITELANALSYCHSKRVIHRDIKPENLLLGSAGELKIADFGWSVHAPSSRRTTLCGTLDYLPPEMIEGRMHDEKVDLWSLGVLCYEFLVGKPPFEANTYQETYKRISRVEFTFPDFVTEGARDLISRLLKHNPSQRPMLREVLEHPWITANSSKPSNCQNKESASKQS
T5 sequence (Q8TDX7 whole entry): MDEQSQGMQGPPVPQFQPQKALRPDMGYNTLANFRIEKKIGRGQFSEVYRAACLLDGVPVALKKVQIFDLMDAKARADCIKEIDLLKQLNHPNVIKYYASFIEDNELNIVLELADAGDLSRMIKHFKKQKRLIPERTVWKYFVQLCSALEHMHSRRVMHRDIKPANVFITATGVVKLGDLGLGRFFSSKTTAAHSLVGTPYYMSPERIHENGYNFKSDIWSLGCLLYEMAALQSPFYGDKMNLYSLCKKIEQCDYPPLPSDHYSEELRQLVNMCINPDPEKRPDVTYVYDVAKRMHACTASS
T7 sequence (O15530 whole entry): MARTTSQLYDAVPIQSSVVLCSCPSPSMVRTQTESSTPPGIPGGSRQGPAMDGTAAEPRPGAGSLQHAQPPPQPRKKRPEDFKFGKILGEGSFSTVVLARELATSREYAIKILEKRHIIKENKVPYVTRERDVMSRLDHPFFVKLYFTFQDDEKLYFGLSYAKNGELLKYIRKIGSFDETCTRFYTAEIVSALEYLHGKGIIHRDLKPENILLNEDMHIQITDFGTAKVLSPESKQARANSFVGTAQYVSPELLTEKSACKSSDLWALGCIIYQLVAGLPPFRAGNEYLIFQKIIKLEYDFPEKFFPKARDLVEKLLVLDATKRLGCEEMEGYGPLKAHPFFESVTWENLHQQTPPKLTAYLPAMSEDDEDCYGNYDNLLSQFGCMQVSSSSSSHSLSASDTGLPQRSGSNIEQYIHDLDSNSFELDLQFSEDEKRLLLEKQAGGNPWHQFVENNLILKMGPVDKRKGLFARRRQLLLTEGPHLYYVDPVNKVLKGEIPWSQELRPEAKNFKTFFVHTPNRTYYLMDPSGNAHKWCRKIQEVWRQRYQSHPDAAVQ

For Cn1cc(-c2cnc3ccc(NC(=O)Nc4ccc(F)c(C(F)(F)F)c4)cc3n2)cn1 [51-106, 1-(4-Fluoro-3-(trifluoromethyl)phenyl)-3-(3-(1-methyl-1H-pyrazol-4-yl)quinoxalin-6-yl)urea], the inhibition at 5 µM (MAP4K3; Lys1, NVNTGELAAIKVIK) was 4.7%, the inhibition at 5 µM (MAP4K3; Lys2, DIKGANILLTDNGHVK) was no more than 0% and the “% Inhibition” value (Wnk1, Wnk2, Wnk3) was 10.6%. The inhibition at 5 µM (FRK) was no more than 0%, the inhibition at 5 µM (PLK2) was 1.4% and the inhibition at 5 µM (CaMK2d) was no more than 0%. The inhibition at 5 µM (NEK7) was 10.3%, the inhibition at 5 µM (CDK7; Lys1, DKNTNQIVAIKK) was 16.6% and the inhibition at 5 µM (CDK7; Lys2, DLKPNNLLLDENGVLK) was 1.6%. The inhibition at 5 µM (PDK1) was no more than 0%, the “% Inhibition” value (AurA; 5 µM, Lys2, DIKPENLLLGSAGELK) was “NB (NB = No Binding (≤ 0))” and the inhibition at 5 µM (AurA; Lys1, […]) was no more than 0%. For the same molecule, the inhibition at 5 µM (MRCKb) was no more than 0%, the inhibition at 5 µM (CDK10) was 10.3% and the inhibition at 5 µM (HRI) was no more than 0%. For the same molecule, the “% Inhibition” value (TAO1, TAO3) was 4.9%, the inhibition at 5 µM (MAP3K3) was 11.4% and the inhibition at 5 µM (EGFR, EGFR-L858R; ATP Loop, LLGAEEKEYHAEGGKVPIK) was no more than 0%. The inhibition at 5 µM (EGFR, EGFR-L858R; Lys1, IPVAIKELR) was 5.5%, the “% Inhibition” value [1] was 0.1% and the “% Inhibition” value (AurA, AurB, AurC) was “NB (NB = No Binding (≤ 0))”. The “% Inhibition” value (CSK; 5 µM, ATP Loop, VSDFGLTKEASSTQDTGKLPVK) was “NB (NB = No Binding (≤ 0))”, the inhibition at 5 µM (CSK; Lys1, VAVKCIK) was no more than 0% and the inhibition at 5 µM (SRPK2) was no more than 0%. The inhibition at 5 µM (SRPK1) was 4.4%, the inhibition at 5 µM (PLK1; Lys1, CFEISDADTKEVFAGKIVPK) was no more than 0% and the inhibition at 5 µM (PLK1; Lys2, DLKLGNLFLNEDLEVK) was 10.9%. The inhibition at 5 µM (JAK1 domain1) was no more than 0%, the inhibition at 5 µM (Erk2) was no more than 0% and the inhibition at 5 µM (Erk1) was no more than 0%.
